Biological target: hPK-M2 (Homo sapiens, UniProt P14618)
Test: Luminescent pyruvate kinase-luciferase coupled assay (KinaseGlo)
Assay type: biochemical
Conditions: for activation at 57 µM / hPK, M2 Max. Res.: KinaseGlo, % activation at 57 μM of compound; for activation at 57 µM: read-out: hPK, M2 Max. Res.; for AC50: luminescent pyruvate kinase-luciferase coupled assay (KinaseGlo), tables, read-out: hPK, M2 AC50
Protocol: Luminescent Pyruvate Kinase-Luciferase Coupled Assay.
Production of a luminescent signal based on the generation of ATP by pyruvate kinase was determined by using the ATP-dependent enzyme firefly luciferase. Three μL of substrate mix (at r.t.) in assay buffer (50 mM imidazole pH 7.2, 50 mM KCl, 7 mM MgCl2, 0.01% tween 20, 0.05% BSA) was dispensed into Kalypsys white solid bottom 1,536 well microtiter plates using a bottle-valve solenoid-based dispenser (Kalypsys). The final concentrations of substrates in the assay were 0.1 mM ADP and 0.5 mM PEP. […] Microtiter plates were incubated at r.t. for 1 hour and 2 uL of luciferase detection mix (Kinase-Glo, Promega at 4° C. protected from light) was added and luminescence was read with a ViewLux (Perkin Elmer) using a 5 second exposure/plate. Data was normalized for AC50 values to control columns containing uninhibited enzyme (n), and AC100 inhibition (i) according the following equation: Activation (%)=[(c−n)/(n−i)]*100 where c=compound, n=DMSO neutral, i=no enzyme control. […] Monitoring of activation was accomplished using enzyme at 3× the final concentration.

hPK-M2, sequence (P14618 whole entry): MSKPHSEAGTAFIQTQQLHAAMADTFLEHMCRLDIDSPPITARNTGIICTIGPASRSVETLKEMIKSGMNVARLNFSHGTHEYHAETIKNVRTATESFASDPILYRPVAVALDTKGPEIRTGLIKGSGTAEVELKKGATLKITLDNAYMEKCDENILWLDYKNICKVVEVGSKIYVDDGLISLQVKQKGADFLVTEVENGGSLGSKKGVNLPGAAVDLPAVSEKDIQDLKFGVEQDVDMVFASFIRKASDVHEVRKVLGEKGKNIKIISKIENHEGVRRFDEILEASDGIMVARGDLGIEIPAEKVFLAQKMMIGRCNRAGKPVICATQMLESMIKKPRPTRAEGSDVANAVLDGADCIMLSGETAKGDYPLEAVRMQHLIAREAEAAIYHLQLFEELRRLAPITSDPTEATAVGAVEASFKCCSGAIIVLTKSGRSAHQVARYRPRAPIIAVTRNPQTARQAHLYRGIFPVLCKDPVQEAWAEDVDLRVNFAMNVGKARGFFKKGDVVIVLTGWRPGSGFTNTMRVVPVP

Row | SMILES | activation at 57 µM [%] | AC50 [nM] | hPK, M2 Max. Res. [%] | PKM2 activation, result in words
1 | O=S(=O)(NC1CCN(S(=O)(=O)c2c(F)cccc2F)C1)c1ccc2c(c1)OCCO2 (stereo not shown) [Compound 41, N-(1-(2,6-difluorophenylsulfonyl)pyrrolidin-3-yl)-2,3-dihydrobenzo[b][1,4]dioxine-6-sulfonamide] | 82.4 ± 18 | > 15000 | – | –
2 | O=S(=O)(NC1CCN(S(=O)(=O)c2ccc3c(c2)OCCO3)C1)c1c(F)cccc1F (stereo not shown) [Compound 42, N-(1-(2,3-dihydrobenzo[b][1,4]dioxin-6-ylsulfonyl)pyrrolidin-3-yl)-2,6-difluorobenzenesulfonamide] | 83.7 ± 24.2 | > 10000 | – | –
3 | O=S(=O)(NCC1CN(S(=O)(=O)c2c(F)cccc2F)C1)c1ccc2c(c1)OCCO2 [Compound 43] | 93.3 ± 9 | 4470 | – | –
4 | O=S(=O)(NCC1CN(S(=O)(=O)c2ccc3c(c2)OCCO3)C1)c1c(F)cccc1F [Compound 44, N-((1-(2,3-dihydrobenzo[b][1,4]dioxin-6-ylsulfonyl)azetidin-3-yl)methyl)-2,6-difluorobenzenesulfonamide] | 108 ± 5.3 | 3050 ± 200 | – | –
5 | C[C@H]1CN(S(=O)(=O)c2c(F)cccc2F)CCN1S(=O)(=O)c1ccc2c(c1)OCCO2 [Compound 45, (S)-4-(2,6-difluorophenylsulfonyl)-1-(2,3-dihydrobenzo[b][1,4]dioxin-6-ylsulfonyl)-2-methylpiperazine] | 109 ± 9.4 | 4340 ± 740 | – | –
6 | C[C@@H]1CN(S(=O)(=O)c2c(F)cccc2F)CCN1S(=O)(=O)c1ccc2c(c1)OCCO2 [Compound 46, (R)-4-(2,6-difluorophenylsulfonyl)-1-(2,3-dihydrobenzo[b][1,4]dioxin-6-ylsulfonyl)-2-methylpiperazine] | 98.8 ± 2.6 | 3100 ± 1170 | – | –
7 | C[C@@H]1CN(S(=O)(=O)c2ccc3c(c2)OCCO3)CCN1S(=O)(=O)c1c(F)cccc1F [Compound 47, (R)-1-(2,6-difluorophenylsulfonyl)-4-(2,3-dihydrobenzo[b][1,4]dioxin-6-ylsulfonyl)-2-methylpiperazine] | 108 ± 9.9 | 9180 ± 2560 | – | –
8 | C[C@H]1CN(S(=O)(=O)c2ccc3c(c2)OCCO3)CCN1S(=O)(=O)c1c(F)cccc1F [Compound 48, (S)-1-(2,6-difluorophenylsulfonyl)-4-(2,3-dihydrobenzo[b][1,4]dioxin-6-ylsulfonyl)-2-methylpiperazine] | 108 ± 8.4 | 2960 ± 200 | – | –
9 | Cc1cc2c(s1)c1cnn(Cc3ccccc3F)c(=O)c1n2C [Compound 66, 2,4-Methyl-6-[(2-fluorophenyl)methyl]-4H-thieno[3,2-b]pyrrole[3,2-d]pyridazinone] | 122 ± 6.1 | 63 ± 20 | – | –
10 | CCc1cc2c(s1)c1cnn(Cc3ccccc3F)c(=O)c1n2C [Compound 68, 2-Ethyl-4-methyl-6-[(2-fluorophenyl)methyl]-4H-thieno[3,2-b]pyrrole[3,2-d]pyridazinone] | 105 ± 5.8 | 100 ± 30 | – | –
11 | Cn1c2ccsc2c2cnn(Cc3ccccc3F)c(=O)c21 [Compound 70, 4-Methyl-6-[(2-fluorophenyl)methyl]-4H-thieno[3,2-b]pyrrole[3,2-d]pyridazinone] | 93.2 ± 6.6 | 605 ± 180 | – | –
12 | COc1cc2c(s1)c1cnn(Cc3ccccc3F)c(=O)c1n2C [Compound 71, 2-Methoxy-4-methyl-6-[(2-fluorophenyl)methyl]-4H-thieno[3,2-b]pyrrole[3,2-d]pyridazinone] | – | 86 ± 40 | – | –
13 | CSc1cc2c(s1)c1cnn(Cc3ccccc3F)c(=O)c1n2C [Compound 72, 2-Methylthio-4-methyl-6-[(2-fluorophenyl)methyl]-4H-thieno[3,2-b]pyrrole[3,2-d]pyridazinone] | 96.3 ± 3.8 | 24 ± 10 | – | –
14 | Cn1c2cc([N+](=O)[O-])sc2c2cnn(Cc3ccccc3F)c(=O)c21 [Compound 80, 2-Nitro-4-methyl-6-[(2-fluorophenyl)methyl]-4H-thieno[3,2-b]pyrrole[3,2-d]pyridazinone] | – | 18 ± 10 | – | –
15 | CC(=O)Nc1cc2c(s1)c1cnn(Cc3ccccc3F)c(=O)c1n2C [Compound 81, 2-Acetylamido-4-methyl-6-[(2-fluorophenyl)methyl]-4H-thieno[3,2-b]pyrrole[3,2-d]-pyridazinone] | 58.6 ± 23.5 | – | – | –
16 | Cn1c2cc(C#N)sc2c2cnn(Cc3ccccc3F)c(=O)c21 [Compound 82, 2-Cyano-4-methyl-6-[(2-fluorophenyl)methyl]-4H-thieno[3,2-b]pyrrole[3,2-d]pyridazinone] | 84.1 ± 5.5 | 47 ± 20 | – | –
17 | COC(=O)c1cc2c(s1)c1cnn(Cc3ccccc3F)c(=O)c1n2C [Compound 83, Methyl 4-methyl-6-[(2-fluorophenyl)methyl]-4,1-thieno[3,2-b]pyrrole[3,2-d]pyridazinone-2-carboxylate] | 70.4 ± 12.9 | 84 ± 30 | – | –
18 | Cn1c2cc(B(O)O)sc2c2cnn(Cc3ccccc3F)c(=O)c21 [Compound 86, 4-Methyl-6-[(2-fluorophenyl)methyl]-4,1-thieno[3,2-b]pyrrole[3,2-d]pyridazinone, 2-ylboronic acid] | 101 ± 1.4 | – | – | –
19 | CC(O)c1cc2c(s1)c1cnn(Cc3ccccc3F)c(=O)c1n2C (stereo not shown) [Compound 88] | – | 136 ± 10 | 119.7 ± 2.6 | –
20 | Cc1cc2[nH]c3c(=O)n(Cc4ccccc4F)ncc3c2s1 [Compound 89, 2-Methyl-6-[(2-fluorophenyl)methyl]-4H-thieno[3,2-b]pyrrole[3,2-d]pyridazinone] | 32.9 ± 3.8 | – | – | –
21 | CCn1c2cc(C)sc2c2cnn(Cc3ccccc3F)c(=O)c21 [Compound 90, 2-Methyl-4-ethyl-6-[(2-fluorophenyl)methyl]-4H-thieno[3,2-b]pyrrole[3,2-d]pyridazinone] | – | 5900 ± 1700 | 95.6 ± 6.3 | –
22 | CCCCCn1ncc2c3sc(C)cc3n(C)c2c1=O [Compound 102, 2,4-Methyl-6-pentyl-4H-thieno[3,2-b]pyrrole[3,2-d]pyridazinone] | – | – | – | marked loss of potency
23 | Cc1cc2c(s1)c1cnn(Cc3ccccc3)c(=O)c1n2C [Compound 103, 2,4-Methyl-6-phenylmethyl-4H-thieno[3,2-b]pyrrole[3,2-d]pyridazinone] | – | 62 ± 20 | – | –
24 | Cc1cc2c(s1)c1cnn(Cc3cccc(F)c3)c(=O)c1n2C [Compound 104] | 91.5 ± 8.4 | 225 ± 100 | – | –
25 | Cc1cc2c(s1)c1cnn(Cc3ccc(F)cc3)c(=O)c1n2C [Compound 105, 2,4-Methyl-6-[(4-fluorophenyl)methyl]-4H-thieno[3,2-b]pyrrole[3,2-d]pyridazinone] | 102 ± 8.9 | 57 ± 20 | – | –
26 | Cc1cc2c(s1)c1cnn(Cc3ccccc3Cl)c(=O)c1n2C [Compound 106, 2,4-Methyl-6-[(2-chlorophenyl)methyl]-4H-thieno[3,2-b]pyrrole[3,2-d]pyridazinone] | 95.6 ± 10 | 298 ± 140 | – | –
27 | Cc1cc2c(s1)c1cnn(Cc3cccc(Cl)c3)c(=O)c1n2C [Compound 107, 2,4-Methyl-6-[(3-chlorophenyl)methyl]-4H-thieno[3,2-b]pyrrole[3,2-d]pyridazinone] | 99.1 ± 3.1 | 126 ± 10 | – | –
28 | Cc1ccc(Cn2ncc3c4sc(C)cc4n(C)c3c2=O)cc1 [Compound 109, 2,4-Methyl-6-[(4-methylphenyl)methyl]-4H-thieno[3,2-b]pyrrole[3,2-d]pyridazinone] | 84.1 ± 5.5 | 356 ± 120 | – | –

Reference: patent US8937067B2, “Activators of human pyruvate kinase” (The United States of America, as represented by the …, priority 2008, dated 2015)
